Results taken from patent US20260250250A1, “3-(SULPHONYL OR SULFONIMIDOYL)PROP-2-EN-1-YL]-2-OXO-1,2-DIHYDROPYRIDINE-3-CARBOXAMIDE DERIVATIVES” (Flinder Therapeutics B.V., priority 2022, published 2026).

Experiments:
NF-κB signaling pathway = test: Cell-based dual luciferase NF-κB reporter assay (HEK293 cells, TNF stimulated); conditions: Homo sapiens, HEK293
Method: Dual-luciferase reporter assay was designed to find inhibitors of HOIP affecting NF-κB signaling pathway. The assay was performed in HEK293 cells which were transfected with plasmids coding for Firefly and NanoLuc luciferases. The NanoLuc luciferase plasmid contains NF-κB response element which determines its expression.
The assay was run following standard dual-luciferase protocols. The assay consists of a few steps: • compounds were dispensed at a concentration range: 100-0.005 μM with a final DMSO concentration of 1% of final volume (25 μL); • cells were stimulated after 30 min with 2.5 ng/mL TNF; and • after 6 h Firefly and NanoLuc luciferase activities are determined according to the procedure described by the manufacturer of Nano-Glo Dual-Luciferase Reporter Assay System.

[1] = molecular target: T1, human E3 ubiquitin-protein ligase RNF31 (HOIP) (Homo sapiens, UniProt Q96EP0); test: Cell-free HTRF-based HOIP inhibition assay; type: biochemical
T1 sequence (Q96EP0 695-1072 limits assumed): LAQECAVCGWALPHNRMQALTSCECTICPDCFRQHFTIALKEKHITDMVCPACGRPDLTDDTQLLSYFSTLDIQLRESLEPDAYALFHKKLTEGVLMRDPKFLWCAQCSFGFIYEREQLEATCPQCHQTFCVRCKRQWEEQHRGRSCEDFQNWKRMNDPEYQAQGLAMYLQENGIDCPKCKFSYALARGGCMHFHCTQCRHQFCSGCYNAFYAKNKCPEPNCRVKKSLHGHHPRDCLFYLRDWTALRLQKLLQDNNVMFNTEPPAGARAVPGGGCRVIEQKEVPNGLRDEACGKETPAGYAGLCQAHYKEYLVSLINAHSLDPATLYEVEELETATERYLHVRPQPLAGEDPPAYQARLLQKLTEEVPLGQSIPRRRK
Method: This assay was performed in the following steps: • a) synthesis of recombinant fragment of human E3 ubiquitin-protein ligase RNF31 (HOIP), expressed with purity >90% in E. coli system (the protein was prepared as 1 mg/mL stock in a standard formulation); • b) incubation of the compounds in a typical concentration range: 100-0.005 μM, at a final DMSO conc. 1% with a mixture of HOIP and ubiquitin activating enzyme E1 at 25° C., for 1 h at 25° C.; • c) followed by addition of a ubiquitination solution including E2 and substrates (the reaction proceeds for 2.5 h at 25° C.); and • d) HTRF detection was performed using a PHERAstar FSX (BMG Labtech) plate reader (excitation at 337 nm, dual emissions at 665 and 620 nm).

[2] = tested on: bladder carcinoma RT4 cell line; test: TNF-α-induced cytotoxicity assay (CellTiter-Glo viability); type: cell-based; conditions: Homo sapiens, RT-4, 72 h
Method: A viability assay, using bladder carcinoma RT4 cell line, was used for identifying the potential inhibitory effect of tested compounds on HOIP activity. The viability was determined by CellTiter-Glo Luminescent Cell Viability Assay (G7571, Promega) which measures the ability of generating a luminescent signal proportional to the amount of ATP present in living cells. The assay consists of a few steps: • a) the cells were routinely sub cultivated twice a week with standard complete growth medium composition; • b) cells were preparated for the assay by creating a cell suspension at the density of 0.05 mln cells/mL and dispensed into plates (ViewPlate-384, PerkinElmer) resulting in 1000 cells/well; • c) cells were stimulated with 1.25 ng/mL TNFα and with compounds and incubated for 72 h at 37° C. in the atmosphere with 5% CO2; and • d) for detection cytotoxicity was measured with CellTiter-Glo® Luminescent Cell Viability Assay based on the method described by the manufacturer.

Row | SMILES | IC50 (NF-κB signaling pathway) | IC50 [1] | IC50 [2]
1 | N=S(=O)(/C=C/CNC(=O)c1cc2c([nH]c1=O)CCCC2)c1ccc(F)cc1 (stereo not shown) [Example 6, N-[(2E)-3-[(4-fluorophenyl)(imino)oxo-λ^6-sulfanyl]prop-2-en-1-yl]-2-oxo-1,2,5,6,7,8-hexahydroquinoline-3-carboxamide] | ≤ 10 µM | ≤ 1 µM | ≤ 1 µM
2 | O=C(NC/C=C/S(=O)(=O)c1ccccc1)c1cc2c([nH]c1=O)CCCC2 [Example 7, N-[(2E)-3-(benzenesulfonyl)prop-2-en-1-yl]-2-oxo-1,2,5,6,7,8-hexahydroquinoline-3-carboxamide] | ≤ 1 µM | ≤ 1 µM | ≤ 1 µM
3 | O=C(NC/C=C/S(=O)(=O)c1ccccc1)c1cc2c([nH]c1=O)CCN(Cc1ccccc1)C2 [Example 8, N-[(2E)-3-(benzenesulfonyl)prop-2-en-1-yl]-6-benzyl-2-oxo-1,2,5,6,7,8-hexahydro-1,6-naphthyridine-3-carboxamide] | ≤ 1 µM | ≤ 1 µM | ≤ 1 µM
4 | CC(C)(C)OC(=O)N1CCc2[nH]c(=O)c(C(=O)NC/C=C/S(=O)(=O)c3ccccc3)cc2C1 [Example 10, tert-butyl 3-{[(2E)-3-(benzenesulfonyl)prop-2-en-1-yl]carbamoyl}-2-oxo-1,2,5,6,7,8-hexahydro-1,6-naphthyridine-6-carboxylate] | ≤ 1 µM | ≤ 0.1 µM | ≤ 10 µM
5 | O=C(NC/C=C/S(=O)(=O)c1ccccc1)c1cc(-c2ccccc2)c[nH]c1=O [Example 12, N-[(2E)-3-(benzenesulfonyl)prop-2-en-1-yl]-2-oxo-5-phenyl-1,2-dihydropyridine-3-carboxamide] | ≤ 10 µM | ≤ 1 µM | ≤ 10 µM
6 | COc1ccc(S(=O)(=O)/C=C/CNC(=O)c2cc3c([nH]c2=O)CCCC3)cc1F [Example 19, N-[(2E)-3-(3-fluoro-4-methoxybenzenesulfonyl)prop-2-en-1-yl]-2-oxo-1,2,5,6,7,8-hexahydroquinoline-3-carboxamide] | ≤ 1 µM | ≤ 0.1 µM | ≤ 1 µM
7 | CC(C)(C)OC(=O)N1CCc2[nH]c(=O)c(C(=O)NC/C=C/S(=O)(=O)c3ccccc3F)cc2C1 [Example 22, tert-butyl 3-{[(2E)-3-(2-fluorobenzenesulfonyl)prop-2-en-1-yl]carbamoyl}-2-oxo-1,2,5,6,7,8-hexahydro-1,6-naphthyridine-6-carboxylate] | ≤ 1 µM | ≤ 0.1 µM | ≤ 1 µM
8 | CC(C)(C)OC(=O)N1CCc2[nH]c(=O)c(C(=O)NC/C=C/S(=O)(=O)c3ccc(F)cc3)cc2C1 [Example 25, tert-butyl 3-{[(2E)-3-(4-fluorobenzenesulfonyl)prop-2-en-1-yl]carbamoyl}-2-oxo-1,2,5,6,7,8-hexahydro-1,6-naphthyridine-6-carboxylate] | ≤ 1 µM | ≤ 0.1 µM | ≤ 10 µM
9 | COc1ccc(S(=O)(=O)/C=C/CNC(=O)c2cc3c([nH]c2=O)CCN(C(=O)OC(C)(C)C)C3)cc1F [Example 26, tert-butyl 3-{[(2E)-3-(3-fluoro-4-methoxybenzenesulfonyl)prop-2-en-1-yl]carbamoyl}-2-oxo-1,2,5,6,7,8-hexahydro-1,6-naphthyridine-6-carboxylate] | ≤ 1 µM | ≤ 0.1 µM | ≤ 10 µM
10 | CC(C)(C)OC(=O)N1CCc2[nH]c(=O)c(C(=O)NC/C=C/S(=O)(=O)c3ccc(Cl)cc3)cc2C1 [Example 27, tert-butyl 3-{[(2E)-3-(4-chlorobenzenesulfonyl)prop-2-en-1-yl]carbamoyl}-2-oxo-1,2,5,6,7,8-hexahydro-1,6-naphthyridine-6-carboxylate] | ≤ 1 µM | ≤ 0.1 µM | ≤ 1 µM
11 | O=C(NC/C=C/S(=O)(=O)c1ccc(Cl)cc1)c1cc2ccccc2[nH]c1=O [Example 28, N-[(2E)-3-(4-chlorobenzenesulfonyl)prop-2-en-1-yl]-2-oxo-1,2-dihydroquinoline-3-carboxamide] | ≤ 1 µM | ≤ 0.1 µM | ≤ 1 µM
12 | O=C(NC/C=C/S(=O)(=O)c1ccc(Cl)cc1)c1cc2c([nH]c1=O)CCN(Cc1ccccc1)C2 [Example 29, 6-benzyl-N-[(2E)-3-(4-chlorobenzenesulfonyl)prop-2-en-1-yl]-2-oxo-1,2,5,6,7,8-hexahydro-1,6-naphthyridine-3-carboxamide] | ≤ 1 µM | ≤ 0.1 µM | ≤ 1 µM
13 | COc1ccc(S(=N)(=O)/C=C/CNC(=O)c2cc3c([nH]c2=O)CCCC3)cc1F (stereo not shown) [Example 30, N-[(2E)-3-[(3-fluoro-4-methoxyphenyl)(imino)oxo-λ^6-sulfanyl]prop-2-en-1-yl]-2-oxo-1,2,5,6,7,8-hexahydroquinoline-3-carboxamide] | ≤ 1 µM | ≤ 0.1 µM | ≤ 1 µM
14 | CN(C)c1ccc(S(=N)(=O)/C=C/CNC(=O)c2cc3c([nH]c2=O)CCCC3)cc1 (stereo not shown) [Example 141, N-[(2E)-3-{[4-(dimethylamino)phenyl](imino)oxo-λ^6-sulfanyl}prop-2-en-1-yl]-2-oxo-1,2,5,6,7,8-hexahydroquinoline-3-carboxamide] | ≤ 1 µM |  | ≤ 1 µM
15 | COc1ccc(S(=N)(=O)/C=C/CNC(=O)c2cc3c([nH]c2=O)CCC(C(C)C)C3)cc1F (stereo not shown) [Example 144, N-[(2E)-3-[(3-fluoro-4-methoxyphenyl)(imino)oxo-λ^6-sulfanyl]prop-2-en-1-yl]-2-oxo-6-(propan-2-yl)-1,2,5,6,7,8-hexahydroquinoline-3-carboxamide] | ≤ 1 µM |  | ≤ 1 µM

Now from value to compound, other results behind:

Row | IC50 (NF-κB signaling pathway) | IC50 [1] | SMILES | IC50 [2]
16 | ≤ 1 µM | ≤ 0.1 µM | O=C(NC/C=C/S(=O)(=O)c1ccc(Br)cc1)c1cc2c([nH]c1=O)CCCC2 [Example 5, N-[(2E)-3-(4-bromobenzenesulfonyl)prop-2-en-1-yl]-2-oxo-1,2,5,6,7,8-hexahydroquinoline-3-carboxamide] | ≤ 1 µM
17 | ≤ 10 µM | ≤ 1 µM | O=C(NC/C=C\S(=O)(=O)c1ccccc1)c1cc2c([nH]c1=O)CCCC2 [Example 9, N-[(2Z)-3-(benzenesulfonyl)prop-2-en-1-yl]-2-oxo-1,2,5,6,7,8-hexahydroquinoline-3-carboxamide] | ≤ 10 µM
18 | ≤ 1 µM | ≤ 0.1 µM | O=C(NC/C=C/S(=O)(=O)c1ccc(Cl)cn1)c1cc2c([nH]c1=O)CCCC2 [Example 11, N-[(2E)-3-[(5-chloropyridin-2-yl)sulfonyl]prop-2-en-1-yl]-2-oxo-1,2,5,6,7,8-hexahydroquinoline-3-carboxamide] | ≤ 1 µM
19 | ≤ 1 µM | ≤ 0.1 µM | O=C(NC/C=C/S(=O)(=O)c1ccc(F)cc1)c1cc2c([nH]c1=O)CCCC2 [Example 16, N-[(2E)-3-(4-fluorobenzenesulfonyl)prop-2-en-1-yl]-2-oxo-1,2,5,6,7,8-hexahydroquinoline-3-carboxamide] | ≤ 1 µM
20 | ≤ 0.1 µM | ≤ 0.1 µM | O=C(NC/C=C/S(=O)(=O)c1ccc(Cl)cc1)c1cc2c([nH]c1=O)CCCC2 [Example 21, N-[(2E)-3-(4-chlorobenzenesulfonyl)prop-2-en-1-yl]-2-oxo-1,2,5,6,7,8-hexahydroquinoline-3-carboxamide] | ≤ 1 µM
21 | ≤ 1 µM | ≤ 0.1 µM | O=C(NC/C=C/S(=O)(=O)c1ccccc1F)c1cc2c([nH]c1=O)CCCC2 [Example 24, N-[(2E)-3-(2-fluorobenzenesulfonyl)prop-2-en-1-yl]-2-oxo-1,2,5,6,7,8-hexahydroquinoline-3-carboxamide] | ≤ 1 µM
22 | ≤ 1 µM | ≤ 0.1 µM | O=C(NC/C=C/S(=O)(=O)c1ccc(F)cc1F)c1cc2c([nH]c1=O)CCCC2 [Example 31, N-[(2E)-3-(2,4-difluorobenzenesulfonyl)prop-2-en-1-yl]-2-oxo-1,2,5,6,7,8-hexahydroquinoline-3-carboxamide] | ≤ 1 µM
